{
  "source": "patent US6365571B1",
  "about": "“FGF inhibitor, angiogenesis inhibitor and antitumor agent containing complestatin or its derivative as effective ingredient” (NODA Institute for Scientific Research, priority 1998, dated 2002)",
  "key": {"[1]": {"test_system": "fetal bovine heart endothelial (FBHE) cells", "assay": "Inhibition of FBHE cell growth stimulated by bFGF", "type": "cell-based", "conditions": "various concentrations, 1 ng/ml bFGF, 2 days, FIG. 8", "protocol": "(§1) Growth of both fetal bovine heart endothelial (FBHE) cells and human umbilical vein endothelial cells (HUVEC) was promoted by addition of bFGF to the media. The inhibitory effect of complestatin on the cell growth stimulated by bFGF was investigated using these cells.\n(1) 10% CS/DMEM containing FBHE at a concentration of 1×10^4 cells/ml was prepared for the cell suspension. One ml aliquots of this solution were then inoculated into each well of a 12-well plate and cultured for one day at 37° C. in a CO2 incubator. 1 ng/ml of bFGF and various concentrations of complestatin were added to each well followed by additional culturing for 2 days at 37° C. in a CO2 incubator. Next, the number of cells in each well was counted with a Coulter Counter (trade name, available from Coulter Electronics Co.)."}, "[2]": {"test_system": "chorioallantoic membrane of chick embryo", "assay": "Angiogenesis in the chick embryo chorioallantoic membrane", "type": "in vivo", "conditions": "2 days, % of fertilized eggs with inhibition", "protocol": "The inhibitory effect of complestatin on angiogenesis in the chorioallantoic membrane of chick embryo was investigated according to the method of T. Oikawa, et al. (J. Antibiotics, 44, 1033, 1991). To begin with, a portion of the uppermost part of the air chamber measuring about 1 cm square was removed from three-day-old fertilized chicken eggs, and cultured for 2 days in a humidified incubator. A silicon ring having an outer diameter of 5 mm and inner diameter of 3 mm was placed on the 5-day-old chorioallantoic membrane, and 10 μl of a 1% methylcellulose solution containing various concentrations of the complestatin obtained in Example 2 were added to the inside of the ring.\nMoreover, after incubating for 2 days, a suitable amount of fat emulsion (Intralipos, trade name, available from Midori Juji Co.) was injected beneath the chorioallantoic membrane to facilitate microscopic observation followed by observation of angiogenesis in the chorioallantoic membrane. Fertilized eggs in which a region free of blood vessels in the chorioallantoic membrane (having a diameter of at least 3 mm) were judged as having observed inhibition of angiogenesis by complestatin. Angiogenesis inhibition rate (%) was calculated according to the following formula:\n100× (number of fertilized eggs in which inhibition of angiogenesis was observed)/(number of fertilized eggs used in test)"}, "[3]": {"test_system": "mouse fibrosarcoma (Meth A) cells", "assay": "Antitumor activity, Meth A cells transplanted subcutaneously to mice", "type": "in vivo", "conditions": "days 1 to 4 and 7 to 9, BALB/c-nu/nu mice, tumor size after 10 days", "protocol": "The antitumor activity of complestatin was confirmed in an experiment using mouse fibrosarcoma (Meth A) cells. To begin with, 1×10^6 Meth A cells cultured in the abdominal cavity of BALB/c-nu/nu mice were transplanted subcutaneously to BALB/c-nu/nu mice (control group: 5 mice, experimental group: 5 mice), and tumor size was measured after 10 days.\nComplestatin was dissolved in PBS, and administered intraperitoneally at 250μl/day once a day during days 1 to 4 and days 7 to 9. The dosing concentrations of complestatin were set at 5 mg/kg and 10 mg/kg. The tumor growth inhibition rate caused by complestatin was calculated according to the following formula:\n{1− (tumor size at each dosing concentration/tumor size at dosing concentration of 0 mg/kg)}×100"}, "Balb/3T3 clone A31 cells": {"test_system": "Balb/3T3 clone A31 cells", "assay": "Inhibition of cell migration stimulated by bFGF (chemotaxis chamber)", "type": "cell-based, mouse", "conditions": "various concentrations, 1 ng/ml bFGF, 5 hours, FIG. 7", "from_the_text": "The effect of complestatin on cell migration stimulated by bFGF was investigated using a 96-well chemotaxis chamber (available from NEURO PROBE CO.) installed with an 8 μm frame filter (available from NEURO PROBE CO.) precoated with gelatin.\nThe experimental principle is illustrated-in FIG. 6. When bFGF is placed in the bottom well, cells adhered to the frame filter in the top well migrate to the bottom well.\nAddition of complestatin to the bottom well can be used to investigate the inhibitory effect of complestatin on cell movement.\n(1) 100 μl of cell suspension (0.5% CS/DMEM containing Balb/3T3 clone A31 cells at a concentration of 5×10^5 cells/ml) were placed in the top wells. In addition, 35 μl of 0.5% CS/DMEM containing various concentrations of complestatin and 1 ng/ml of bFGF were placed in the bottom wells.\n(2) After incubating the chamber for 5 hours at 37° C. in a CO2 incubator, the frame filter was removed from the chamber, the cells were stained with Diff-Quik staining solution (trade name, available from Kokusai Shiyaku Co.), and the number of cells that migrated to the bottom surface of the filter was counted. Furthermore, with the exception of not adding complestatin to the bottom wells, the same procedure was performed for the control."}, "[4]": {"test_system": "human leukemia (HL-60) cells", "assay": "Antitumor activity, HL-60 cells transplanted subcutaneously to SCID mice", "type": "in vivo, mouse", "conditions": "5 mg/kg intraperitoneally, days 1 to 3, 5 to 9, 12 and 13, CB17 SCID mice, tumor size after 20 days", "protocol": "The antitumor activity of complestatin was confirmed in an experiment using human leukemia (HL-60) cells. To begin with, 5×10^6 HL-60 cells were transplanted subcutaneously to CB17. SCID mice (control group: 4 mice, experimental group: 4 mice), and tumor size was measured after 20 days. Complestatin was dissolved in PBS, and administered intraperitoneally at 250μl/day once a day during days 1 to 3, days 5 to 9 and days 12 and 13. The dosing concentration of complestatin was set at 5 mg/kg. The tumor growth inhibition rate caused by complestatin was calculated according to the following formula:\n{1− (tumor size at dosing concentration/tumor size at dosing concentration of 0 mg/kg)}×100"}, "[5]": {"test_system": "bovine aortic endothelial cells (BAEC)", "assay": "Tube formation of vascular endothelial cells in collagen gel", "type": "cell-based", "conditions": "Bos taurus, 48 h, 2 days, read-out: Tube formation inhibition rate", "protocol": "The inhibitory effect of complestatin on angiogenesis was investigated using a modified method of Furubayashi, et al. (J. Jap. Pharm., 105, 357, 1995). In this method, vascular endothelial cells form a tube (blood vessel-like tubular structure) in collagen gel. Addition of complestatin to this system makes it possible to investigate the inhibitory effect of complestatin on angiogenesis.\n(1) Collagen gel was prepared in the manner described below. To begin with, type I collagen solution (3 mg/ml, available from Wako Junyaku Co.), 10-fold concentrated HEPES-free DMEM, reconstitution buffer (2.2 g of sodium bicarbonate and 4.77 g of HEPES dissolved in 100 ml of 0.05 N aqueous sodium hydroxide solution) and deionized water were mixed on ice at a ratio of 5:1:1:3 followed by the addition of 0.75 ml aliquots to each well of a 12-well plate. This plate was then incubated for 20 minutes in an incubator at 37° C. to form a gel.\n(2) A cell suspension was prepared by suspending 3×10^5 cells/ml of bovine aortic endothelial cells (BAEC) in 10% CS/DMEM, after which 1.5 ml aliquots were inoculated onto the collagen gel followed by culturing for one day at 37° C. in a CO2 incubator. After removing the medium and washing four times with DMEM, 0.75 ml aliquots of the above-mentioned type I collagen solution were layered onto the plate followed by gelation at 37° C. in an incubator. 1.5 ml of 0.5% CS/DMEM containing various concentrations of complestatin were added to the resulting gel followed by culturing for 2 days at 37° C. in a CO2 incubator.\n(3) After culturing, photographs were taken of four fields randomly selected for each well and these photographs were then analyzed by using the Olympus image processing analyzer Type SP500F (trade name, available from Olympus Co.) to determine the lengths of all tubes. The length of tube was then divided by the field area to determine the tube length per unit area.\nThe tube formation inhibition rate of complestatin was calculated according to the following formula:\n{1− (tube length per unit area at each concentration/tube length per unit area in the absence of addition of complestatin)}×100"}, "[6]": {"test_system": "human umbilical vein endothelial cells (HUVEC)", "assay": "Inhibition of HUVEC cell growth stimulated by bFGF", "type": "cell-based", "conditions": "various concentrations, 10 ng/ml bFGF, 2 days, FIG. 8", "protocol": "as §1\n(2) On the other hand, medium containing HUVEC at a concentration of 1×10^4 cells/ml (MCDB131 medium containing 10% fetal bovine serum, 25 mM HEPES (pH 7.5), 10 units/ml of penicillin and 10 μg/ml of streptomycin) was prepared for the cell suspension. One ml aliquots of the cell suspension were inoculated into each well of a 12-well plate precoated with type I collagen, and incubated for one day at 37° C. in a CO2 incubator. 10 ng/ml of bFGF and various concentrations of complestatin were added to each well followed by additional incubation for 2 days at 37° C. in a CO2 incubator. Next, the number of cells in each well was counted with a Coulter Counter (trade name, available from Coulter Electronics Co.). Furthermore, with the exception of not adding complestatin, the same procedure was performed for the control."}, "bFGF receptors": {"test_system": "bFGF receptors", "assay": "Inhibition of specific binding of 125I-bFGF to receptors on Balb/3T3 clone A31 cells", "parameters": "species or system mouse", "conditions": "various concentrations, 2 ng/ml 125I-bFGF, 1.5 hours at 4° C., FIG. 5", "protocol": "(3) Inhibitory effects on binding of bFGF to receptors was investigated for the above-mentioned sample solution according to the method of A. Yayon, et al. (Proc. Natl. Acad. Sci., USA, 90, 10643, 1993).\nNamely, 1 ml of medium containing mouse fibroblast cell Balb/3T3 clone A31 cells at a concentration of 1×10^5 cells/ml (Dulbecco's modified Eagle's medium containing 10% calf serum, 25 mM HEPES (pH 7.5), 10 units/ml of penicillin and 10 μg/ml of streptomycin (10% CS/DMEM)) was added to a 24-well culture plate, and cultured for one day at 37° C. in a CO2 incubator. Furthermore, mouse fibroblast cells are known to express FGF receptors on their cell surfaces (J. Biol. Chem., 268, 9611, 1993). […]\nFollowing completion of the reaction, after removing the binding medium and washing once with cold binding medium, the plate was washed twice with cold PBS (0.2 g potassium chloride, 0.2 g potassium primary phosphate, 8 g sodium chloride, 1.15 g sodium secondary phosphate and 1 liter of deionized water) at pH 7.5 containing 1.6 M sodium chloride. […] This procedure was repeated again, the solution was combined with the previous solution and then transferred to an RIA tube where radioactivity was measured with a gamma counter (available from Pharmacia Co.).\nThe amount of bFGF bound to receptors (specifically bound amount) was determined according to the following formula: […]"}},
  "data": [
    {"smiles": "CN1C(=O)C(c2cc(Cl)c(O)c(Cl)c2)NC(=O)C2NC(=O)C(c3cc(Cl)c(O)c(Cl)c3)NC(=O)C(NC(=O)C(=O)c3cc(Cl)c(O)c(Cl)c3)Cc3c[nH]c4cc(ccc34)-c3cc2cc(c3O)Oc2ccc(cc2)CC1C(=O)NC(C(=O)O)c1ccc(O)cc1", "note": "(centres unmarked) [complestatin]", "values": [
      {"measurement": "inhibition of growth of FBHE promoted by bFGF", "setting": "[1]", "result": "concentration-dependently inhibit"},
      {"measurement": "Angiogenesis inhibition rate", "setting": "[2]; 6.25 μg/egg", "result": 14, "unit": "%"},
      {"measurement": "Angiogenesis inhibition rate", "setting": "[2]; 12.5 μg/egg", "result": 33, "unit": "%"},
      {"measurement": "Angiogenesis inhibition rate", "setting": "[2]; 25 μg/egg", "result": 33, "unit": "%"},
      {"measurement": "Angiogenesis inhibition rate", "setting": "[2]; 50 μg/egg", "result": 52, "unit": "%"},
      {"measurement": "Angiogenesis inhibition rate", "setting": "[2]; 100 μg/egg", "result": 77, "unit": "%"},
      {"measurement": "Growth inhibition rate (tumor size)", "setting": "[3]; 5 mg/kg intraperitoneally", "result": 40, "unit": "%"},
      {"measurement": "Growth inhibition rate (tumor size)", "setting": "[3]; 10 mg/kg intraperitoneally", "result": 68, "unit": "%"},
      {"measurement": "inhibition of Balb/3T3 clone A31 cell migration stimulated by bFGF", "setting": "Balb/3T3 clone A31 cells", "result": "concentration-dependently inhibit"},
      {"measurement": "Growth inhibition rate (tumor size)", "setting": "[4]", "result": 76, "unit": "%"},
      {"measurement": "inhibition at 0.78 µg/mL", "setting": "[5]; 0.78 μg/ml complestatin", "result": 3, "unit": "%"},
      {"measurement": "inhibition at 1.6 µg/mL", "setting": "[5]; 1.6 μg/ml complestatin", "result": 17, "unit": "%"},
      {"measurement": "inhibition at 3.1 µg/mL", "setting": "[5]; 3.1 μg/ml complestatin", "result": 10, "unit": "%"},
      {"measurement": "inhibition at 6.3 µg/mL", "setting": "[5]; 6.3 μg/ml complestatin", "result": 21, "unit": "%"},
      {"measurement": "inhibition at 13 µg/mL", "setting": "[5]; 13 μg/ml complestatin", "result": 43, "unit": "%"},
      {"measurement": "inhibition at 25 µg/mL", "setting": "[5]; 25 μg/ml complestatin", "result": 91, "unit": "%"},
      {"measurement": "inhibition at 50 µg/mL", "setting": "[5]; 50 μg/ml complestatin", "result": 94, "unit": "%"},
      {"measurement": "inhibition at 100 µg/mL", "setting": "[5]; 100 μg/ml complestatin", "result": 99, "unit": "%"},
      {"measurement": "inhibition of growth of HUVEC promoted by bFGF", "setting": "[6]", "result": "concentration-dependently inhibit"},
      {"measurement": "inhibition of specific binding of 125I-bFGF to receptors", "setting": "bFGF receptors", "result": "concentration-dependently inhibit"}
    ]}
  ]
}
